Reference: ChEMBL document CHEMBL1671859, “bla(IMP-4) in different genetic contexts in Enterobacteriaceae isolates from Australia” (2008)

What was measured:
Type in all cases: functional
Escherichia coli [1] = assay: Antibacterial activity against Escherichia coli Ec9381 transconjugant harboring IncL/M plasmid and blaIMP-4-qacG2-aacA4-catB3 array by Etest method in presence of clavulanic acid
Klebsiella pneumoniae [2] = assay: Antibacterial activity against Klebsiella pneumoniae Kp3799 transconjugant harboring IncL/M plasmid and blaIMP-4-qacG2-aacA4-catB3 array by Etest method in presence of clavulanic acid
Klebsiella pneumoniae [3] = assay: Antibacterial activity against Klebsiella pneumoniae Kp149 transconjugant harboring IncA/C plasmid and blaIMP-4-qacG2-aacA4-catB3 array by Etest method in presence of clavulanic acid
Enterobacter cloacae [4] = assay: Antibacterial activity against Enterobacter cloacae El3799 transconjugant harboring IncL/M plasmid and blaIMP-4-qacG2-aacA4-catB3 array by Etest method in presence of clavulanic acid
Citrobacter amalonaticus [5] = assay: Antibacterial activity against Citrobacter amalonaticus isolate Ca1614 harboring IncL/M plasmid and blaIMP-4-qacG2-aacA4-catB3 array by Etest method in presence of clavulanic acid
Enterobacter cloacae [6] = assay: Antibacterial activity against Enterobacter cloacae isolate El3518 harboring IncL/M plasmid and blaIMP-4-qacG2-aacA4-catB3 array by Etest method in presence of clavulanic acid
Serratia marcescens [7] = assay: Antibacterial activity against Serratia marcescens isolate Sm265 harboring IncA/C plasmid and blaIMP-4-qacG2-aacA4-catB3 array by Etest method in presence of clavulanic acid
Citrobacter amalonaticus [8] = assay: Antibacterial activity against Citrobacter amalonaticus Ca3927 transconjugant harboring IncL/M plasmid and blaIMP-4-qacG2-aacA4-catB3 array by Etest method in presence of clavulanic acid
Escherichia coli [9] = assay: Antibacterial activity against Escherichia coli isolate Ec158 harboring IncA/C plasmid and blaIMP-4-qacG2-aacA4-catB3 array by Etest method in presence of clavulanic acid
Escherichia coli [10] = assay: Antibacterial activity against Escherichia coli isolate Ec211 harboring IncA/C plasmid and blaIMP-4-qacG2-aacA4-catB3 array by Etest method in presence of clavulanic acid
Citrobacter youngae = assay: Antibacterial activity against Citrobacter youngae CyB38 transconjugant harboring blaIMP-4-qacG2-aacA4-catB3 array by Etest method in presence of clavulanic acid
Morganella morganii [11] = assay: Antibacterial activity against Morganella morganii isolate Mm1614 harboring IncL/M plasmid and blaIMP-4-qacG2-aacA4-catB3 array by Etest method in presence of clavulanic acid
Klebsiella oxytoca [12] = assay: Antibacterial activity against Klebsiella oxytoca Ko1156 transconjugant harboring IncL/M plasmid and blaIMP-4-qacG2-aacA4-catB3 array by Etest method in presence of clavulanic acid
Morganella morganii [13] = assay: Antibacterial activity against Morganella morganii Mm1229 transconjugant harboring IncL/M plasmid and blaIMP-4-qacG2-aacA4-catB3 array by Etest method in presence of clavulanic acid
Acinetobacter baumannii = assay: Antibacterial activity against Acinetobacter baumannii isolate AbN450 harboring blaIMP-4-qacG2-aacA4-catB3 array by Etest method in presence of clavulanic acid
Klebsiella pneumoniae [14] = assay: Antibacterial activity against Klebsiella pneumoniae isolate Kp2730 harboring IncL/M plasmid and blaIMP-4-qacG2-aacA4-catB3 and dfrA12-orfF-aadA2 arrays by Etest method in presence of clavulanic acid
Klebsiella pneumoniae [15] = assay: Antibacterial activity against Klebsiella pneumoniae Kp7564 transconjugant harboring IncL/M plasmid and blaIMP-4-qacG2-aacA4-catB3 array by Etest method in presence of clavulanic acid
Serratia marcescens [16] = assay: Antibacterial activity against Serratia marcescens isolate Sm201 harboring IncA/C plasmid and blaIMP-4-qacG2-aacA4-catB3 array by Etest method in presence of clavulanic acid
Klebsiella pneumoniae [17] = assay: Antibacterial activity against Klebsiella pneumoniae isolate Kp38045 harboring IncL/M plasmid and blaIMP-4-qacG2-aacA4-catB3 array by Etest method in presence of clavulanic acid
Klebsiella pneumoniae [18] = assay: Antibacterial activity against Klebsiella pneumoniae Kp38045 transconjugant harboring IncL/M plasmid and blaIMP-4-qacG2-aacA4-catB3 array by Etest method in presence of clavulanic acid
Morganella morganii [19] = assay: Antibacterial activity against Morganella morganii Mm38009 transconjugant harboring IncL/M plasmid and blaIMP-4-qacG2-aacA4-catB3 array by Etest method in presence of clavulanic acid
Escherichia coli [20] = assay: Antibacterial activity against Escherichia coli isolate Ec221 harboring IncA/C plasmid and blaIMP-4-qacG2-aacA4-catB3 array by Etest method in presence of clavulanic acid
Klebsiella pneumoniae [21] = assay: Antibacterial activity against Klebsiella pneumoniae isolate Kp1945 harboring IncL/M plasmid, blaIMP-4-qacG2-aacA4-catB3 and dfrA12-orfF-aadA2 arrays by Etest method in presence of clavulanic acid
Citrobacter koseri = assay: Antibacterial activity against Citrobacter koseri Ck211 transconjugant harboring IncA/C plasmid and blaIMP-4-qacG2-aacA4-catB3 array by Etest method in presence of clavulanic acid
Klebsiella oxytoca [22] = assay: Antibacterial activity against Klebsiella oxytoca isolate Ko0426 harboring IncL/M plasmid and blaIMP-4-qacG2-aacA4-catB3 array by Etest method in presence of clavulanic acid
Klebsiella pneumoniae [23] = assay: Antibacterial activity against Klebsiella pneumoniae isolate Kp4614 in presence of clavulanic acid
Morganella morganii [24] = assay: Antibacterial activity against Morganella morganii isolate Mm38009 harboring IncL/M plasmid and blaIMP-4-qacG2-aacA4-catB3 array by Etest method in presence of clavulanic acid
Serratia marcescens [25] = assay: Antibacterial activity against Serratia marcescens isolate Sm203 harboring IncA/C plasmid and blaIMP-4-qacG2-aacA4-catB3 array by Etest method in presence of clavulanic acid
Serratia marcescens [26] = assay: Antibacterial activity against Serratia marcescens isolate Sm2723 harboring IncL/M plasmid and blaIMP-4-qacG2-aacA4-catB3 array by Etest method in presence of clavulanic acid
Klebsiella pneumoniae [27] = assay: Antibacterial activity against Klebsiella pneumoniae Kp38009 transconjugant harboring IncL/M plasmid and blaIMP-4-qacG2-aacA4-catB3 array by Etest method in presence of clavulanic acid
Klebsiella pneumoniae [28] = assay: Antibacterial activity against Klebsiella pneumoniae isolate Kp1239 harboring IncL/M plasmid and blaIMP-4-qacG2-aacA4-catB3 array by Etest method in presence of clavulanic acid
Klebsiella pneumoniae [29] = assay: Antibacterial activity against Klebsiella pneumoniae isolate Kp266 harboring IncA/C plasmid and blaIMP-4-qacG2-aacA4-catB3 array by Etest method in presence of clavulanic acid
Citrobacter freundii = assay: Antibacterial activity against Citrobacter freundii isolate Cf1614 harboring IncL/M plasmid and blaIMP-4-qacG2-aacA4-catB3 array by Etest method in presence of clavulanic acid
Serratia marcescens [30] = assay: Antibacterial activity against Serratia marcescens Sm265 transconjugant harboring IncA/C plasmid and blaIMP-4-qacG2-aacA4-catB3 array by Etest method in presence of clavulanic acid
Enterobacter cloacae [31] = assay: Antibacterial activity against Enterobacter cloacae isolate El3799 harboring IncL/M plasmid and blaIMP-4-qacG2-aacA4-catB3 array by Etest method in presence of clavulanic acid
Klebsiella pneumoniae [32] = assay: Antibacterial activity against Klebsiella pneumoniae isolate Kp211 harboring IncA/C plasmid and blaIMP-4-qacG2-aacA4-catB3 array by Etest method in presence of clavulanic acid

Measured: MIC

CC1(C)S[C@@H]2[C@H](NC(=O)[C@H](N)c3ccc(O)cc3)C(=O)N2[C@H]1C(=O)O [AMOXICILLIN]
> 16 µg/mL: all assays above
